Where a name gives a salt, the structure may show the parent alone. Read-outs that look alike come from different tables or passages of the source.
Biological target: full length NS3/4a (Hepatitis C virus genotype 1b (isolate BK) (HCV), UniProt P26663)
Experiment: NS3 Protease Assay (Example A), FRET-based
Format: biochemical
Protocol: The HCV NS3 protease functions have been extensively studied and are considered as potential targets for antiviral therapy: see for example the many references listed in the introductory section of this application. Therefore, the activity of the compounds of the invention as anti-HCV agents was assessed using a full length HCV NS3 protease.
The protease activity of the full length NS3/4a was measured using a FRET-based assay utilizing a peptide substrate derived from the NS4A/B cleavage site (Anaspec) and labelled at one end with a quencher (QXL520) and at the other with a fluorophore (5-FAMsp). NS3/4a (produced in-house by literature methods) was incubated with test compounds and peptide substrate in 50 mM Tris pH8, 20 mM DTT, 1% CHAPS, 10% glycerol and 5% DMSO. The reaction was followed by monitoring the change in fluorescence on a Molecular Devices Gemini plate reader for 30 minutes at room temperature. Initial rates were calculated from the progress curves using SoftMax Pro (Molecular Devices). IC50 values were then calculated from replicate curves using Prism GraphPad software.

[1] = HCV NS3 protease assay, full length NS3/4a, read-out: Assay A IC50 (μM) average
[2] = read-out: IC50 against the protease activity of the full length NS3/4a

full length NS3/4a, sequence (P26663 1027-1657): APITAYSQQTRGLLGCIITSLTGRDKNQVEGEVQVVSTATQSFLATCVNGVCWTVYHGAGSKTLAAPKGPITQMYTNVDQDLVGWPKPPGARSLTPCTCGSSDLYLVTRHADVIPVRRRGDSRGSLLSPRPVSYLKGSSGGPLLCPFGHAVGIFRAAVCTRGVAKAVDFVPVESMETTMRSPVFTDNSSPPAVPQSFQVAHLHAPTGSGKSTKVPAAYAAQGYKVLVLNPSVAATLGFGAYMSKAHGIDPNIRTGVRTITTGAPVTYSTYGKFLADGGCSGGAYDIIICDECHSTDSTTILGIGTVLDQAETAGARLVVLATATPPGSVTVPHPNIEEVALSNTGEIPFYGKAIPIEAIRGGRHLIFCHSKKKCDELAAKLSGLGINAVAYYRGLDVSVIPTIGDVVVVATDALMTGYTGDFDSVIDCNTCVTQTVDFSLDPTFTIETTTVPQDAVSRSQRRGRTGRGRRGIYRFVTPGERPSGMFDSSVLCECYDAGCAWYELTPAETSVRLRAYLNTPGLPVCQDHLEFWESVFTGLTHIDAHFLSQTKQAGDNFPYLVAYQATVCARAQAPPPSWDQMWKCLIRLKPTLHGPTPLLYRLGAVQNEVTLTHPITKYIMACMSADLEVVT

SMILES	IC50 [1]	IC50 [2]	inhibition at 10 µM (@ 10 uM)	inhibition at 0.1 µM (@ 0.1 uM)
CC[C@@H](N)c1ccc(Cl)c(C(=O)c2ccnc(N)c2)c1F [Example 52, 4-({3-[(1R)-1-aminopropyl]-6-chloro-2-fluorophenyl}carbonyl)pyridin-2-amine]	0.77 µM	< 1 µM	–	–
CC[C@@H](N)c1ccc(Cl)c(C(=O)c2cccc(CO)c2)c1F [Example 54, [3-({3-[(1R)-1-aminopropyl]-6-chloro-2-fluorophenyl}carbonyl)phenyl]methanol]	0.14 µM	< 1 µM	–	–
CC[C@@H](N)c1ccc(Cl)c(C(=O)c2cn[nH]c2)c1F [Example 55, (1R)-1-{4-chloro-2-fluoro-3-[(1H-pyrazol-4-yl)carbonyl]phenyl}propan-1-amine]	4.4 µM	1 to 5 µM	–	–
Nc1cnc(C(=O)c2c(Cl)ccc([C@H](N)C3CC3)c2F)cn1 [Example 56, 5-({3-[(R)-amino(cyclopropyl)methyl]-6-chloro-2-fluorophenyl}carbonyl)pyrazin-2-amine]	0.6 µM	< 1 µM	–	–
CC[C@@H](N)c1ccc(Cl)c(C(=O)c2cnc(NC)cn2)c1F [Example 57, 5-({3-[(1R)-1-aminopropyl]-6-chloro-2-fluorophenyl}carbonyl)-N-methylpyrazin-2-amine]	4.6 µM	1 to 5 µM	–	–
CC[C@@H](N)c1ccc(Cl)c(C(=O)c2ccc3c(n2)NC(=O)CO3)c1F [Example 58, 6-({3-[(1R)-1-aminopropyl]-6-chloro-2-fluorophenyl}carbonyl)-2H,3H,4H-pyrido[3,2-b][1,4]oxazin-3-one]	–	–	31%	–
CC[C@@H](N)c1ccc(Cl)c(C(=O)c2ccc3c(c2)OCC(=O)N3)c1F [Example 60, 7-({3-[(1R)-1-Aminopropyl]-6-chloro-2-fluorophenyl}-carbonyl)-3,4-dihydro-2H-1,4-benzoxazin-3-one]	0.55 µM	< 1 µM	–	–
Nc1ccc(C(=O)c2c(Cl)ccc([C@H](N)C3CC3)c2F)nc1 [Example 61, 6-({3-[(R)-amino(cyclopropyl)methyl]-6-chloro-2-fluorophenyl}carbonyl)pyridin-3-amine]	1.2 µM	1 to 5 µM	–	–
N#Cc1ccc(C(=O)c2c(Cl)ccc([C@H](N)C3CC3)c2F)nc1 [Example 62, 6-({3-[(R)-amino(cyclopropyl)methyl]-6-chloro-2-fluorophenyl}carbonyl)pyridine-3-carbonitrile]	0.32 µM	< 1 µM	–	–
CC[C@@H](N)c1ccc(Cl)c(C(=O)c2ccc([N+](=O)[O-])c(C)c2)c1F [Example 64, (1R)-1-{4-chloro-2-fluoro-3-[(3-methyl-4-nitrophenyl)carbonyl]phenyl}propan-1-amine]	–	–	–	44%
CC[C@@H](N)c1ccc(Cl)c(C(=O)c2ccc3c(c2)OCCN3)c1F [Example 65, (1R)-1-{4-chloro-3-[(3,4-dihydro-2H-1,4-benzoxazin-7-yl)carbonyl]-2-fluorophenyl}propan-1-amine]	0.16 µM	–	–	–
CCC[C@@H](N)c1ccc(Cl)c(C(=O)c2ccc(N)nc2)c1F [Example 66, 5-({3-[(1R)-1-aminobutyl]-6-chloro-2-fluorophenyl}carbonyl)pyridin-2-amine]	0.2 µM	–	–	–
C=CC[C@@H](N)c1ccc(Cl)c(C(=O)c2ccc(N)nc2)c1F [Example 67, 5-({3-[(1R)-1-aminobut-3-en-1-yl]-6-chloro-2-fluorophenyl}carbonyl)pyridin-2-amine]	0.37 µM	–	–	–
N[C@@H](c1ccc(Cl)c(C(=O)c2ccc(CO)cc2)c1F)C1CC1 [Example 68, [4-({3-[(R)-amino(cyclopropyl)methyl]-6-chloro-2-fluorophenyl}-carbonyl)phenyl]methanol hydrochloride]	0.21 µM	–	–	–
CC[C@@H](N[C@H](C)CC(N)=O)c1ccc(Cl)c(C(=O)c2ccc(N)nc2)c1F [Example 82, (3R)-3-{[(1R)-1-{3-[(6-aminopyridin-3-yl)carbonyl]-4-chloro-2-fluorophenyl}propyl]-amino}butanamide]	0.83 µM	–	–	–
